The source made the active and inactive calls. No cut-off for these calls is given here.

The target in assay [1] is B-cell receptor CD22 (Homo sapiens) (UniProt P20273). The assay is described as follows: Binding affinity against CD22 adhesion protein in ELISA competition assay;no effect. Background: ELISA stands for enzyme-linked immunosorbent assay.
The target is the same in assay [2]. The assay is described as follows: Binding affinity against CD22 adhesion protein;no effect.
The target is the same in assay [3]. The assay is described as follows: Binding affinity against CD22 adhesion protein; no effect.

Sequence of B-cell receptor CD22 (Homo sapiens) (P20273 whole entry): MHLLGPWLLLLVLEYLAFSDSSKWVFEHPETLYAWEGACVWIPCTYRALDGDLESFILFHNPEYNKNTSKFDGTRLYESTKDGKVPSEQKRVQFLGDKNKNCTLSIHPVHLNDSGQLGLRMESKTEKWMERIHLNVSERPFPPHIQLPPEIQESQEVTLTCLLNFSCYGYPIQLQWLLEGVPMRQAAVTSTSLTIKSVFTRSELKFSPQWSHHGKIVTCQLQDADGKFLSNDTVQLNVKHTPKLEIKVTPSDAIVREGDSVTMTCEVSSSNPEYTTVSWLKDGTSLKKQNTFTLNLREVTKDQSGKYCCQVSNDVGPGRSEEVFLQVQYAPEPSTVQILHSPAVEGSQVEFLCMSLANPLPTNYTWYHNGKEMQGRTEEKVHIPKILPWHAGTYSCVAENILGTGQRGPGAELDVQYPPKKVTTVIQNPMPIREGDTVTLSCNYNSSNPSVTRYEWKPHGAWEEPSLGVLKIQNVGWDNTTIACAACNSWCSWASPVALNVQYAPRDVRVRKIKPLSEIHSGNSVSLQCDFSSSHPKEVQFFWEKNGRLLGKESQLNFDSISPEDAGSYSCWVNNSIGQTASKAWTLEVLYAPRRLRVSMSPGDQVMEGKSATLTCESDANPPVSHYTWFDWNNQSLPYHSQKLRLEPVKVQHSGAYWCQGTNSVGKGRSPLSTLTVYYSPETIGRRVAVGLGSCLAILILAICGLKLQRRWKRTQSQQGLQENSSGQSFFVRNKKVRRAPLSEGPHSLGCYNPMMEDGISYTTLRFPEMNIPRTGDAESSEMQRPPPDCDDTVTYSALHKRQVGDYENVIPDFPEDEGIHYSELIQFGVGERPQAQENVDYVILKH

Consider `CC(=O)N[C@@H]1[C@@H](O)C[C@](OC[C@H]2O[C@@H](Oc3ccc([N+](=O)[O-])cc3)[C@H](NC(C)=O)[C@@H](O[C@@H]3O[C@H](COS(=O)(=O)O)[C@H](O)[C@H](O)[C@H]3O)[C@@H]2O)(C(=O)O)O[C@H]1C(O)C(O)CO` (stereo partly drawn), for which the result in assay [1] was inactive. Turning to `CC(=O)N[C@@H]1[C@@H](O)C[C@](OC[C@H]2O[C@@H](Oc3ccc([N+](=O)[O-])cc3)[C@H](NC(C)=O)[C@@H](O[C@@H]3O[C@H](CO)[C@H](O)[C@H](O)[C@H]3O)[C@@H]2O)(C(=O)O)O[C@H]1C(O)C(O)CO` (stereo partly drawn), in assay [1], the result was inactive. For `CC(=O)N[C@@H]1[C@@H](O)C[C@](OC[C@H]2O[C@H](Oc3ccccc3[N+](=O)[O-])[C@H](NC(C)=O)[C@@H](O[C@@H]3O[C@H](COS(=O)(=O)O)[C@H](O)[C@H](O)[C@H]3O)[C@H]2O)(C(=O)O)O[C@H]1C(O)C(O)CO` (stereo partly drawn), in assay [2], the result was inactive. Regarding `O=C(CBr)OCC1OC(Br)C(OC(=O)c2ccccc2)C(OC(=O)c2ccccc2)C1OC(=O)c1ccccc1` (stereo not drawn), the result in assay [3] was inactive. Take `CC(=O)N[C@@H]1[C@@H](Oc2ccccc2[N+](=O)[O-])O[C@@H](CO)[C@H](O)[C@@H]1O[C@@H]1O[C@@H](CO)[C@H](O)[C@H](OS(=O)(=O)O)[C@@H]1O`: the outcome in assay [2] was inactive. Take `CC(=O)N[C@@H]1[C@@H](Oc2ccccc2[N+](=O)[O-])O[C@@H](COS(=O)(=O)O)[C@H](O)[C@@H]1O[C@@H]1O[C@@H](COS(=O)(=O)O)[C@H](O)[C@H](O)[C@@H]1O`: in assay [2], the result was inactive. For `CC(=O)N[C@@H]1[C@@H](Oc2ccccc2[N+](=O)[O-])O[C@@H](CO)[C@H](O)[C@@H]1O[C@@H]1O[C@@H](COS(=O)(=O)O)[C@H](O)[C@H](O)[C@@H]1O`, the outcome in assay [2] was inactive. For `CC(=O)OCC1OC(Br)C(OC(C)=O)C(OC(=O)CCl)C1OC(C)=O` (stereo not drawn), the result in assay [2] was inactive.

The values above are taken from ChEMBL document CHEMBL1150017, “A convenient synthesis of sulfated and sialyl oligosaccharides as potential ligands for CD22 adhesion protein” (Bioorg Med Chem Lett, 1995).
